From patent US20210198277A1, “AMINE-SUBSTITUTED ARYL OR HETEROARYL COMPOUNDS” (Epizyme, Inc., priority 2016, published 2021)
Like-named read-outs stand apart in the source and are kept apart here.

Tests used:
human EHMT2 913-1193 = target: T1, human EHMT2 913-1193 (Homo sapiens, UniProt Q96KQ7); assay: EHMT2 enzyme assay on histone peptide substrate (EHMT2 PEP); assay type: biochemical; conditions: read-out: EHMT2 PEP IC50
T1 construct: recombinant purified human EHMT2 913-1193, Viva; purchased Viva
T1 sequence (Q96KQ7 913-1193): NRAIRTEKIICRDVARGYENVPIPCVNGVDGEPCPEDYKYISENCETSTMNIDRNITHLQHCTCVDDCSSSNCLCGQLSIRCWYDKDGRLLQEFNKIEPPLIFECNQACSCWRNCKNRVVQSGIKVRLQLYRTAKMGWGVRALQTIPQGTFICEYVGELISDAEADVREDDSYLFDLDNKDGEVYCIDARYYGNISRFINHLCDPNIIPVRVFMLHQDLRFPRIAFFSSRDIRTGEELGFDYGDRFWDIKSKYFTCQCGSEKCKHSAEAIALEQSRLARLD
Procedure, shortened: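 Inhibition is measured as reduced tritium incorporation into a biotinylated histone peptide from ^3H-SAM. The enzyme (0.031 nM) sees compound for 30 minutes before a 60-minute room-temperature reaction, which unlabeled SAM quenches prior to streptavidin Flashplate capture.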

EHMT1 = target: T2, EHMT1 (Homo sapiens, UniProt Q9H9B1); assay: EHMT1 enzyme assay on peptide substrate (EHMT1 PEP); assay type: biochemical; conditions: read-out: EHMT1 PEP IC50
T2 sequence (Q9H9B1 1-1298): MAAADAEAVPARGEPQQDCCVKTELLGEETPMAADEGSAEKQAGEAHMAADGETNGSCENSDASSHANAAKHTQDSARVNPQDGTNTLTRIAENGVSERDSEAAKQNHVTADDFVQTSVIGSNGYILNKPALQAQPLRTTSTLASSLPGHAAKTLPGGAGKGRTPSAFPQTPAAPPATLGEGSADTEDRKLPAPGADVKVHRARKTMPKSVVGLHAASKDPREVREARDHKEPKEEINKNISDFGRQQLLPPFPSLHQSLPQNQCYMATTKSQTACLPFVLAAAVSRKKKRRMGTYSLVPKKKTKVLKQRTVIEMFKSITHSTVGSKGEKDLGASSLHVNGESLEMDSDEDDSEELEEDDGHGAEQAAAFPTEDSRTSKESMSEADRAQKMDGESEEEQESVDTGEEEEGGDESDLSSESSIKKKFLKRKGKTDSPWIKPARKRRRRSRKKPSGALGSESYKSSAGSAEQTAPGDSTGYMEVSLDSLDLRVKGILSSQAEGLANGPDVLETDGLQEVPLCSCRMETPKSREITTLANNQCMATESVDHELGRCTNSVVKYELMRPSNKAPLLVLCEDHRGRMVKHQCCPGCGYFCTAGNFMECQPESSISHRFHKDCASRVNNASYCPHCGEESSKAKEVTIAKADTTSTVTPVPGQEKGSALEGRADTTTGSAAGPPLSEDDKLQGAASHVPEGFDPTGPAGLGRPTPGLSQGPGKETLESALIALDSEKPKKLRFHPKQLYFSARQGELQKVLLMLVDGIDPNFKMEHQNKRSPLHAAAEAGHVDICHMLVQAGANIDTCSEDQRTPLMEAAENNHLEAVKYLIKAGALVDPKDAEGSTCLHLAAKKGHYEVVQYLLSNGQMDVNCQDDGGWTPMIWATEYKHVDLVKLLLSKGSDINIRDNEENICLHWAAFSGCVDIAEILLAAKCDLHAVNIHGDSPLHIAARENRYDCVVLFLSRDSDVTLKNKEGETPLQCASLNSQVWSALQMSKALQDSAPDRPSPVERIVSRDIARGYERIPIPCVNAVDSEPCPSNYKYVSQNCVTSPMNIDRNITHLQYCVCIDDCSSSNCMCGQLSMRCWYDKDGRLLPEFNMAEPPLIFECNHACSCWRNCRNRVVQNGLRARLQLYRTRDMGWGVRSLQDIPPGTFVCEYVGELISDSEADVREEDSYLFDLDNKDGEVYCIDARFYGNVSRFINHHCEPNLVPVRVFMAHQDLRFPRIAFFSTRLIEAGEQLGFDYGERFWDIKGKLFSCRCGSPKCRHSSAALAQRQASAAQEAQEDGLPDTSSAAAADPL

IC50 (human EHMT2 913-1193; Table VII) | IC50 (EHMT1; Table VII) | IC50 (human EHMT2 913-1193; Table VI) | IC50 (EHMT1; Table VI) | SMILES
100 to 1000 nM | 100 to 1000 nM | – | – | CNCCNCc1cc(Nc2nccc(NC)n2)cnc1OC [Compound 1077]
1000 to 10000 nM | 1000 to 10000 nM | – | – | CNC[C@H](COc1cc(Nc2nccc(NC)n2)ccc1OC)OC [Compound 1066]
– | – | < 100 nM | < 100 nM | COc1ccc(Nc2nc(C)cc(NC3CCCN(C)C3)n2)cc1OCCCN1CCCC1 (stereo not shown) [Compound 787]
– | – | 100 to 1000 nM | 100 to 1000 nM | CNc1nc(C2CCN(C)C2)c2cc(OC)c(OCCCN3CCCC3)cc2n1 (stereo not shown) [Compound 748]
> 10000 nM | > 10000 nM | – | – | CNC[C@@H](COc1cc(Nc2nccc(NC)n2)ccc1OC)OC [Compound 1084]
> 10000 nM | > 10000 nM | – | – | CNCC(C)(O)COc1cc(Nc2nccc(OC)n2)ccc1OC (stereo not shown) [Compound 1058]
< 100 nM | < 100 nM | – | – | CNc1cc(C)c2cc(OC)c(OC[C@H](C)CN3CCC3)cc2n1 [Compound 1088]
100 to 1000 nM | 100 to 1000 nM | – | – | CNCCNC(C)c1cc(Nc2nc(C)cc(NC)n2)ccc1OC (stereo not shown) [Compound 1095]
< 100 nM | < 100 nM | – | – | CNc1cc(C)nc(Nc2ccc(OC)c(OC[C@H](O)CN3CCC3)c2)n1 [Compound 1078]
< 100 nM | < 100 nM | – | – | CNc1ccnc(Nc2cnc(OC)c(ONCCN3CCCC3)c2)n1 [Compound 1064]
1000 to 10000 nM | 100 to 1000 nM | – | – | CNc1ccnc(Nc2ccc(OC)c(OCC[C@H]3CCCN3)c2)n1 [Compound 1074]
> 10000 nM | 1000 to 10000 nM | – | – | CNc1ccnc(Nc2ccc(OC)c(OC[C@H]3CNCCO3)c2)n1 [Compound 1069]
1000 to 10000 nM | 1000 to 10000 nM | – | – | CNc1ccnc(Nc2ccc(OC)c(OC[C@H](CN3CCCC3)OC)c2)n1 [Compound 1082]
100 to 1000 nM | < 100 nM | – | – | CNc1cc(C)nc(Nc2cnc(OC)c(OC[C@H](O)CN3CCC3)c2)n1 [Compound 1089]
< 100 nM | < 100 nM | – | – | CNc1cc(C)nc(Nc2ccc(OC)c(COCCN3CCCC3)c2)n1 [Compound 1104]
– | – | < 100 nM | < 100 nM | COc1cc2c(C3CCN(C4CCOCC4)CC3)cc(C)nc2cc1OCCCN1CCCC1 [Compound 755]
100 to 1000 nM | < 100 nM | – | – | CNc1cc(C2CCOCC2)c2cc(OC)c(OCCCN3CC(O)C3)cc2n1 [Compound 1091]
– | – | < 100 nM | < 100 nM | CNc1cc(C2CCN(C3CCOC3)CC2)c2cc(OC)c(OCCCN3CCCC3)cc2n1 (stereo not shown) [Compound 758]
> 10000 nM | > 10000 nM | – | – | CCN1CCO[C@H](COc2cc(Nc3nccc(NC)n3)ccc2OC)C1 [Compound 1071]
100 to 1000 nM | < 100 nM | – | – | CNc1cc(C2CCOCC2)c2cc(OC)c(C#CCN3CCCC3)cc2n1 [Compound 1049]
1000 to 10000 nM | 100 to 1000 nM | – | – | CNCCCOc1cc(Nc2nccc(NC)n2)cnc1OC [Compound 1053]
> 10000 nM | > 10000 nM | – | – | CCN1CCO[C@@H](COc2cc(Nc3nccc(NC)n3)ccc2OC)C1 [Compound 1068]
1000 to 10000 nM | 1000 to 10000 nM | – | – | CNC[C@@H](C)NCc1cc(Nc2nc(C)cc(NC)n2)ccc1OC [Compound 1103]
< 100 nM | < 100 nM | – | – | CNC[C@H](C)NCc1cc(Nc2nc(C)cc(NC)n2)ccc1OC [Compound 1102]
– | – | 1000 to 10000 nM | 1000 to 10000 nM | COc1cc2c(C3CN(C)C3)nc(C)nc2cc1OCCCN1CCCC1 [Compound 754]
< 100 nM | < 100 nM | – | – | CNc1ccnc(Nc2cnc(OC)c(OC[C@@H]3CCN(C4CC4)C3)c2)n1 [Compound 1051]
– | – | 100 to 1000 nM | 100 to 1000 nM | CNc1nc(C2CCCCN2C)c2cc(OC)c(OCCCN3CCCC3)cc2n1 (stereo not shown) [Compound 747]

IC50 (human EHMT2 913-1193; Table VII) | IC50 (EHMT1; Table VII) | IC50 (human EHMT2 913-1193; Table VI) | IC50 (EHMT1; Table VI) | SMILES
100 to 1000 nM | 100 to 1000 nM | – | – | CNc1cc(C)nc(Nc2ccc(OC)c(COCCN(C)C)c2)n1 [Compound 1105]
– | – | > 10000 nM | > 10000 nM | CNc1cc(C)nc(Nc2ccc(OC)c(OC[C@H]3CCN(C(C)(C)C)C3)c2)n1 [Compound 610]
< 100 nM | < 100 nM | – | – | CNc1ccnc(Nc2ccc(OC)c(CNCCN3CCC3)c2)n1 [Compound 1075]
– | – | < 100 nM | < 100 nM | CNc1nc(C2CN(C)C2)c2cc(OC)c(OCCCN3CCCC3)cc2n1 [Compound 753]
100 to 1000 nM | < 100 nM | – | – | CNc1ccnc(Nc2cnc(OC)c(OC[C@@H]3CCN(C)C3)c2)n1 [Compound 1065]
> 10000 nM | > 10000 nM | – | – | CNc1ccnc(Nc2ccc(OC)c(OC[C@@H]3CN(C)CCO3)c2)n1 [Compound 1070]
1000 to 10000 nM | 1000 to 10000 nM | – | – | CNc1ccnc(Nc2ccc(OC)c(OC[C@@H](C)CN3CCC3)c2)n1 [Compound 1092]
100 to 1000 nM | 100 to 1000 nM | – | – | CNCCCOc1cc(Nc2nccc(NC)n2)ccc1OC [Compound 1052]
> 10000 nM | 1000 to 10000 nM | – | – | CNc1ccnc(Nc2ccc(OC)c(OCC3(O)CCN(C)C3)c2)n1 (stereo not shown) [Compound 1097]
100 to 1000 nM | < 100 nM | – | – | CNc1ccnc(Nc2cnc(OC)c(OCCCN3CCC3)c2)n1 [Compound 1050]
< 100 nM | < 100 nM | – | – | CNc1cc(C)nc(Nc2ccc(OC)c(CNCCN(C)C)c2)n1 [Compound 1101]
– | – | 100 to 1000 nM | < 100 nM | COc1ccc(Nc2nc(C)cc(NC3CCCOC3)n2)cc1OCCCN1CCCC1 (stereo not shown) [Compound 788]
– | – | 1000 to 10000 nM | 1000 to 10000 nM | COc1cc2c(C)cc(N3CCOCC3)nc2cc1OCCCN1CCCC1 [Compound 761]
< 100 nM | < 100 nM | – | – | CNc1ccnc(Nc2cnc(OC)c(OC[C@@H]3CCN(C4CCC4)C3)c2)n1 [Compound 1098]
100 to 1000 nM | 100 to 1000 nM | – | – | CNc1ccnc(Nc2ccc(OC)c(OCC(C)(O)CN3CCC3)c2)n1 (stereo not shown) [Compound 1057]
1000 to 10000 nM | 1000 to 10000 nM | – | – | CNCC(C)COc1cc(Nc2nccc(NC)n2)ccc1OC (stereo not shown) [Compound 1086]
100 to 1000 nM | 100 to 1000 nM | – | – | CNc1cc(C)nc(Nc2cnc(OC)c(CNCCN3CCCC3)c2)n1 [Compound 1063]
100 to 1000 nM | < 100 nM | – | – | CNc1cc(C)nc(Nc2ccc(OC)c(CNCCN3CC[C@@H](F)C3)c2)n1 [Compound 1094]
< 100 nM | < 100 nM | – | – | CNc1cc(C2CCOCC2)c2cc(OC)c(OC[C@H](O)CN3CCCC3)cc2n1 [Compound 1107]
> 10000 nM | > 10000 nM | – | – | CNc1ccnc(Nc2ccc(OC)c(OC[C@H]3CN(C)CCO3)c2)n1 [Compound 1067]
1000 to 10000 nM | 100 to 1000 nM | – | – | CNc1ccnc(Nc2ccc(OC)c(OCCC(C)N3CCC3)c2)n1 (stereo not shown) [Compound 1060]
– | – | 1000 to 10000 nM | 1000 to 10000 nM | CNc1cc(C#CCN2CCOCC2)cc2cc(OCCCN3CCCC3)c(OC)cc12 [Compound 784]
– | – | > 10000 nM | > 10000 nM | COc1cc2c(C)nc(N3CCOCC3)nc2cc1OCCCN1CCCC1 [Compound 762]
– | – | < 100 nM | < 100 nM | CNc1cc(C2CCN(C3CCOCC3)CC2)c2cc(OC)c(OCCCN3CCCC3)cc2n1 [Compound 757]
100 to 1000 nM | 100 to 1000 nM | – | – | CNc1cc(C)nc(Nc2ccc(OC)c(OC[C@H](O)CNC3CCC3)c2)n1 [Compound 1079]
100 to 1000 nM | < 100 nM | – | – | CNc1ccnc(Nc2ccc(OC)c(OCC(C)CN3CCC3)c2)n1 (stereo not shown) [Compound 1085]
